Patent EP4574151A1, “INHIBITORS OF G12V-MUTATED RAS PROTEIN TO TREAT CANCER” (Personather Spolka Z Ograniczona Odpowiedzialnoscia, priority 2023, dated 2025)

Experiments:
BALB/c mice = experiment: Acute toxicity after oral administration (Acute Toxicity test TG425); type: in vivo; settings: female BALB/c mice, oral by gastric probe, 40 mg of substance in corn oil, three mice, observed two weeks
Excerpt: The study was planned according to Acute Toxicity Test 425 (oral administration) - higher-lower-dose procedure, in accordance with the OECD regulation of October 3, 2008. The test procedure described in these guidelines is useful in minimizing the number of animals needed to estimate the acute toxicity after oral administration of potential drugs. In addition to the LD50 assessment and confidence intervals, the test allows for the observation of signs of toxicity. For this purpose, an experiment was agreed upon with the Local Ethics Committee for Animal Experimentation, using BALB/c mice. The TG425 method allows for the estimation of LD50 values with confidence intervals, and the results allow for the classification of substances according to the global harmonized system for the classification of chemicals that cause acute toxicity.
A sequential test, utilizing a maximum of 5 animals, was applied, which is known as the limit test. A test dose of either 2000 or uniquely 5000 mg/kg can be used. The testing procedures at 2000 and 5000 mg/kg differ slightly (see Sections 23-25 for the limit test at 2000 mg/kg and Sections 26-30 for the limit test at 5000 mg/kg). The selection of a sequential testing plan increases the statistical power, and a deliberate deviation from the limit test rejection procedure was made for compounds with an LD50 near the limit dose; i.e. committing an error on the side of caution. As with any limit test protocol, the probability of correct compound classification will decrease, as the actual LD50 value more closely resembles the limit dose.
• 1. Female Balb/c mice, which were 50-56 days postpartum, were used for the purposes of this experiment. • 2. Mice underwent a 1-week quarantine after being transported to the laboratory. • 3. The studied molecules (PER154A, PER160A, PER170A, PER176A) were suspended according to the TG425 protocol, i.e. 40 mg of substance in […] of laboratory corn oil and orally administered through a plastic gastro probe (used: 20ga (0.9 mm OD x 0.5 mm ID), 38 mm), which was suitable for the size of the animal (17-21 g). The mice were observed and weighed almost daily. • 4. Mouse housing conditions: up to 4 mice per cage; temperature: 23.2 - 23.40°C; humidity: 27.6 - 40.9% relative humidity. • 5. Two weeks later (time counted separately for each mouse), a resection was performed to analyze internal organs for any abnormalities.

[1] = tested on: SW620 cells (with RASG12V mutation); experiment: Crystal violet cytotoxicity test (IC50) in KRASG12V positive cells; type: cell-based; settings: for toxicity towards KRASG12V positive cells (SW620) compared to normal cells (NIH/3T3): ratio from IC50 values, crystal violet test, 72 hours incubation; for toxicity against cancer cells expressing KRASG12V: summary statement
Excerpt: IC50 (half-maximal inhibitory concentration) is the concentration value of a tested compound which inhibits biochemical and biological functions of cells in half of the tested population. Determining this indicator is extremely important for assessing the cytotoxicity of molecules with therapeutic potential.
The first step in developing the methodology for determining IC50 was to conduct density tests to determine the appropriate number of cells to use in cytotoxicity tests. The different content of bovine fetal serum in the culture medium was also investigated to rule out any potential impact on the reduction in cell count, regardless of the analyzed molecules.
As a research model, colon cancer and lung cancer cell lines (sensitive lines) were used, including SW620, SW480, and COR-L23, respectively, which are characterized by the KRASG12V gene mutation and lack of other alterations in genes belonging to the RAS protein signaling pathway, as well as a stable line of normal cells (mouse fibroblasts), which serve as a platform for evaluating the impact of tested compounds on non-cancer cells. Below is the result for one of the analyzed cell lines with the mutation. Similar differences in IC50 values compared to normal cells were obtained for the other cell lines mentioned above with the RASG12V mutation.
The effect of molecules on the biology of selected cell lines to assess their cytotoxicity using the IC50 indicator was carried out according to the protocol below: • 1. The cells of the tested lines were seeded in wells of a 96-well plate at specified densities. • 2. After seeding, the cells were subjected to a 24-hour incubation in medium with a 1% and 2.5% addition of serum (sensitive lines) or in medium with a 0.5% addition of serum (normal line). • 3. The cells were exposed to selected molecules at selected concentrations. The control was provided by the culture medium without any added compounds. Concentrations of the tested molecules [uM]: • □ NIH3T3: 500; 250; 125; 62,5; 31,25 • □ SW620: 60; 30; 15; 7,5; 3,75 • 4. After 72 hours of incubation, the culture medium was removed and the cells were washed twice with buffer saline solution (PBS). Then, the cells were incubated for 10 minutes with a 0.1% solution of crystal violet at room temperature (Merck Millipore). • 5. After 10 minutes, the crystal violet solution was removed and the wells of the 96-well plate were washed twice with PBS solution. • 4. 50% ice-cold acetic acid solution was added to each well and incubated again for 10 minutes at room temperature on a shaker at 650 rpm. • 5. Absorbance measurement was performed using a plate reader, at a wavelength of λ = 540 nm

## O=C(Nc1ccc2c(c1)OCCO2)c1ccc2c(c1)C1C3CCC(C3)C1C(c1ccccc1)N2 (stereo not drawn) [PER154A]
BALB/c mice
  safety in acute oral toxicity test: safe and safe for mice
[1]
  toxicity towards KRASG12V positive cells (SW620) compared to normal cells (NIH/3T3): about 85 times
  toxicity against cancer cells expressing KRASG12V: toxicity

## O=C(Nc1ccc(F)cc1)c1ccc2c(c1)C1C3CCC(C3)C1C(c1ccccc1)N2 (stereo not drawn) [PER160A]
BALB/c mice
  safety in acute oral toxicity test: safe for mice
[1]
  toxicity towards KRASG12V positive cells (SW620) compared to normal cells (NIH/3T3): over 36 times
  toxicity against cancer cells expressing KRASG12V: toxicity
